In ChEMBL document CHEMBL1201862, “PubChem BioAssay data set” (2004):
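Assay format: 96-well plates, 48-hour exposure. Here, GI50 denotes the concentration required for 50% inhibition of growth.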 Activity calls are given as the source filed them. No stated cut-off is given here; in the data, active = GI50 up to about 1.1 µM and inactive = higher.

Experiments:
Assay in all cases: NCI anticancer screen, dose series, 48 h
SNB-75 = tested on: SNB-75
KM12 = tested on: KM12
A498 = tested on: A498
SK-MEL-2 = tested on: SK-MEL-2
M14 = tested on: M14
MDA-MB-435 = tested on: MDA-MB-435
IGROV-1 = tested on: IGROV-1
SNB-19 = tested on: SNB-19
SK-MEL-5 = tested on: SK-MEL-5
SW-620 = tested on: SW-620
LOX IMVI = tested on: LOX IMVI
MOLT-4 = tested on: MOLT-4
HOP-92 = tested on: HOP-92
ACHN = tested on: ACHN
HCC 2998 = tested on: HCC 2998
SF-268 = tested on: SF-268
OVCAR-5 = tested on: OVCAR-5
HCT-15 = tested on: HCT-15
BT-549 = tested on: BT-549
NCI-H226 = tested on: NCI-H226
K562 = tested on: K562
MDA-MB-231 = tested on: MDA-MB-231
T47D = tested on: T47D
SK-MEL-28 = tested on: SK-MEL-28
TK-10 = tested on: TK-10
OVCAR-3 = tested on: OVCAR-3
MCF7 = tested on: MCF7
SN12C = tested on: SN12C
RPMI-8226 = tested on: RPMI-8226
DU-145 = tested on: DU-145
HCT-116 = tested on: HCT-116
CCRF-CEM = tested on: CCRF-CEM
SK-OV-3 = tested on: SK-OV-3
OVCAR-8 = tested on: OVCAR-8
NCI/ADR-RES = tested on: NCI/ADR-RES
NCI-H460 = tested on: NCI-H460
HT-29 = tested on: HT-29
COLO 205 = tested on: COLO 205
SR = tested on: SR
EKVX = tested on: EKVX
PC-3 = tested on: PC-3
RXF 393 = tested on: RXF 393
UACC-62 = tested on: UACC-62
NCI-H23 = tested on: NCI-H23
Hs-578T = tested on: Hs-578T
HL-60 = tested on: HL-60
U-251 = tested on: U-251
HOP-62 = tested on: HOP-62
UO-31 = tested on: UO-31
UACC-257 = tested on: UACC-257
A549 = tested on: A549
MDA-N = tested on: MDA-N
OVCAR-4 = tested on: OVCAR-4
CAKI-1 = tested on: CAKI-1
786-0 = tested on: 786-0
SF-295 = tested on: SF-295
SF-539 = tested on: SF-539
NCI-H522 = tested on: NCI-H522
Malme-3M = tested on: Malme-3M

COC(=O)C1([C@@H]2C[C@@H](O)[C@]3(C)CC/C=C(\C)CCC[C@H](C)[C@H](O)[C@@H]2O3)CC1
GI50 (SNB-75): 0.286 µM (active)
GI50 (KM12): 60.4 µM (inactive)
GI50 (A498): > 100 µM (inactive)
GI50 (SK-MEL-2): 73.3 µM (inactive)
GI50 (M14): 53.3 µM (inactive)
GI50 (MDA-MB-435): 77.6 µM (inactive)
GI50 (IGROV-1): 37.3 µM (inactive)
GI50 (SNB-19): 46.7 µM (inactive)
GI50 (SK-MEL-5): 39.4 µM (inactive)
GI50 (SW-620): 95.9 µM (inactive)
GI50 (LOX IMVI): 61.4 µM (inactive)
GI50 (MOLT-4): 26.5 µM (inactive)
GI50 (HOP-92): 96.4 µM (inactive)
GI50 (ACHN): 24.8 µM (inactive)
GI50 (HCC 2998): 63.1 µM (inactive)
GI50 (SF-268): 64.7 µM (inactive)
GI50 (OVCAR-5): 80.5 µM (inactive)
GI50 (HCT-15): 34.9 µM
GI50 (BT-549): 53.7 µM (inactive)
GI50 (NCI-H226): 27.2 µM (inactive)
GI50 (K562): 34.8 µM (inactive)
GI50 (MDA-MB-231): 90.2 µM (inactive)
GI50 (T47D): 46.6 µM (inactive)
GI50 (SK-MEL-28): > 100 µM (inactive)
GI50 (TK-10): 57.7 µM (inactive)
GI50 (OVCAR-3): 51.4 µM (inactive)
GI50 (MCF7): 41.9 µM (inactive)
GI50 (SN12C): > 100 µM (inactive)
GI50 (RPMI-8226): 50.7 µM (inactive)
GI50 (DU-145): 66.8 µM (inactive)
GI50 (HCT-116): 51.2 µM (inactive)
GI50 (CCRF-CEM): > 100 µM (inactive)
GI50 (SK-OV-3): > 100 µM (inactive)
GI50 (OVCAR-8): 88.9 µM (inactive)
GI50 (NCI/ADR-RES): 39.4 µM (inactive)
GI50 (NCI-H460): 32.7 µM (inactive)
GI50 (HT-29): 42.5 µM (inactive)
GI50 (COLO 205): 57 µM (inactive)
GI50 (SR): 39.4 µM (inactive)
GI50 (EKVX): 81.7 µM (inactive)
GI50 (PC-3): 31.8 µM (inactive)
GI50 (RXF 393): 52 µM (inactive)
GI50 (UACC-62): 66.8 µM (inactive)
GI50 (NCI-H23): 50.4 µM (inactive)
GI50 (Hs-578T): 63.2 µM (inactive)
GI50 (HL-60): > 100 µM (inactive)
GI50 (U-251): 71.9 µM (inactive)
GI50 (HOP-62): 76.4 µM (inactive)
GI50 (UO-31): 23.8 µM (inactive)
GI50 (UACC-257): 56.1 µM (inactive)
GI50 (A549): 33.9 µM (inactive)
GI50 (MDA-N): 72.3 µM (inactive)
GI50 (OVCAR-4): 45.9 µM (inactive)
GI50 (CAKI-1): > 100 µM (inactive)
GI50 (786-0): 92.3 µM (inactive)
GI50 (SF-295): 43.1 µM (inactive)
GI50 (SF-539): 91 µM (inactive)
GI50 (NCI-H522): 38.5 µM (inactive)
GI50 (Malme-3M): > 100 µM (inactive)

CC(=O)CC(OC(C)=O)C1=CCC2C(CC1C)OC(=O)C2C (configuration not stated)
GI50 (SNB-75): > 100 µM (inactive)
GI50 (KM12): > 100 µM (inactive)
GI50 (A498): > 100 µM (inactive)
GI50 (SK-MEL-2): > 100 µM (inactive)
GI50 (M14): > 100 µM (inactive)
GI50 (MDA-MB-435): > 100 µM (inactive)
GI50 (IGROV-1): > 100 µM (inactive)
GI50 (SNB-19): > 100 µM (inactive)
GI50 (SK-MEL-5): > 100 µM (inactive)
GI50 (SW-620): > 100 µM (inactive)
GI50 (LOX IMVI): 88.5 µM (inactive)
GI50 (MOLT-4): > 100 µM (inactive)
GI50 (HOP-92): > 100 µM (inactive)
GI50 (ACHN): > 100 µM (inactive)
GI50 (HCC 2998): > 100 µM (inactive)
GI50 (SF-268): > 100 µM (inactive)
GI50 (OVCAR-5): > 100 µM (inactive)
GI50 (HCT-15): > 100 µM
GI50 (BT-549): 75 µM (inactive)
GI50 (NCI-H226): > 100 µM (inactive)
GI50 (K562): > 100 µM (inactive)
GI50 (MDA-MB-231): > 100 µM (inactive)
GI50 (T47D): > 100 µM (inactive)
GI50 (SK-MEL-28): > 100 µM (inactive)
GI50 (TK-10): > 100 µM (inactive)
GI50 (OVCAR-3): > 100 µM (inactive)
GI50 (MCF7): > 100 µM (inactive)
GI50 (SN12C): > 100 µM (inactive)
GI50 (RPMI-8226): > 100 µM (inactive)
GI50 (DU-145): > 100 µM (inactive)
GI50 (HCT-116): > 100 µM (inactive)
GI50 (CCRF-CEM): 64.9 µM (inactive)
GI50 (SK-OV-3): > 100 µM (inactive)
GI50 (OVCAR-8): > 100 µM (inactive)
GI50 (NCI/ADR-RES): > 100 µM (inactive)
GI50 (NCI-H460): > 100 µM (inactive)
GI50 (HT-29): > 100 µM (inactive)
GI50 (COLO 205): > 100 µM (inactive)
GI50 (SR): 78.9 µM (inactive)
GI50 (EKVX): > 100 µM (inactive)
GI50 (PC-3): > 100 µM (inactive)
GI50 (RXF 393): > 100 µM (inactive)
GI50 (UACC-62): > 100 µM (inactive)
GI50 (NCI-H23): > 100 µM (inactive)
GI50 (Hs-578T): > 100 µM (inactive)
GI50 (HL-60): 40.6 µM (inactive)
GI50 (U-251): > 100 µM (inactive)
GI50 (HOP-62): > 100 µM (inactive)
GI50 (UACC-257): > 100 µM (inactive)
GI50 (A549): > 100 µM (inactive)
GI50 (MDA-N): > 100 µM (inactive)
GI50 (OVCAR-4): > 100 µM (inactive)
GI50 (CAKI-1): > 100 µM (inactive)
GI50 (786-0): > 100 µM (inactive)
GI50 (SF-295): > 100 µM (inactive)
GI50 (SF-539): > 100 µM (inactive)
GI50 (NCI-H522): > 100 µM (inactive)
GI50 (Malme-3M): > 100 µM (inactive)
